Reference: ChEMBL document CHEMBL1201862, “PubChem BioAssay data set” (2004)
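Exposure lasted 48 hours, with cells grown in 96-well plates and compounds tested at five concentrations. GI50 is the concentration that inhibits growth by half.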 Active and inactive are the calls of the source. No stated cut-off is given here; in the data, active = GI50 up to about 1.1 µM and inactive = higher.

Legend:
Test in all cases: NCI tumour cell line growth inhibition, 48 h
786-0 = system: 786-0
A498 = system: A498
A549 = system: A549
ACHN = system: ACHN
CAKI-1 = system: CAKI-1
CCRF-CEM = system: CCRF-CEM
COLO 205 = system: COLO 205
DLD-1 = system: DLD-1
DMS-114 = system: DMS-114
DMS-273 = system: DMS-273
EKVX = system: EKVX
HCC 2998 = system: HCC 2998
HCT-116 = system: HCT-116
HL-60 = system: HL-60
HOP-18 = system: HOP-18
HT-29 = system: HT-29
IGROV-1 = system: IGROV-1
K562 = system: K562
KM-20L2 = system: KM-20L2
KM12 = system: KM12
LXFL 529 = system: LXFL 529
M19-MEL = system: M19-MEL
MOLT-4 = system: MOLT-4
Malme-3M = system: Malme-3M
NCI-H226 = system: NCI-H226
NCI-H23 = system: NCI-H23
NCI-H460 = system: NCI-H460
NCI-H522 = system: NCI-H522
OVCAR-3 = system: OVCAR-3
OVCAR-8 = system: OVCAR-8
RPMI-8226 = system: RPMI-8226
RXF 393 = system: RXF 393
SF-268 = system: SF-268
SF-295 = system: SF-295
SF-539 = system: SF-539
SK-MEL-28 = system: SK-MEL-28
SK-MEL-2 = system: SK-MEL-2
SK-MEL-5 = system: SK-MEL-5
SK-OV-3 = system: SK-OV-3
SN12C = system: SN12C
SNB-19 = system: SNB-19
SNB-75 = system: SNB-75
SNB-78 = system: SNB-78
SR = system: SR
SW-620 = system: SW-620
TK-10 = system: TK-10
U-251 = system: U-251
UACC-257 = system: UACC-257
UACC-62 = system: UACC-62
UO-31 = system: UO-31
BT-549 = system: BT-549
DU-145 = system: DU-145
HCT-15 = system: HCT-15
HOP-62 = system: HOP-62
HOP-92 = system: HOP-92
Hs-578T = system: Hs-578T
LOX IMVI = system: LOX IMVI
M14 = system: M14
MCF7 = system: MCF7
MDA-MB-231 = system: MDA-MB-231
MDA-MB-435 = system: MDA-MB-435
NCI/ADR-RES = system: NCI/ADR-RES
OVCAR-4 = system: OVCAR-4
OVCAR-5 = system: OVCAR-5
PC-3 = system: PC-3
T47D = system: T47D

C1CN2CCO[SiH](O1)OCC2
GI50 (786-0): > 100 µM (inactive) | GI50 (A498): > 100 µM (inactive) | GI50 (A549): > 100 µM (inactive) | GI50 (ACHN): > 100 µM (inactive) | GI50 (CAKI-1): > 100 µM (inactive) | GI50 (CCRF-CEM): > 100 µM (inactive) | GI50 (COLO 205): > 100 µM (inactive) | GI50 (DLD-1): > 100 µM (inactive) | GI50 (DMS-114): > 100 µM (inactive) | GI50 (DMS-273): > 100 µM (inactive) | GI50 (EKVX): > 100 µM (inactive) | GI50 (HCC 2998): > 100 µM (inactive) | GI50 (HCT-116): > 100 µM (inactive) | GI50 (HL-60): > 100 µM (inactive) | GI50 (HOP-18): > 100 µM (inactive) | GI50 (HT-29): > 100 µM (inactive) | GI50 (IGROV-1): > 100 µM (inactive) | GI50 (K562): > 100 µM (inactive) | GI50 (KM-20L2): > 100 µM (inactive) | GI50 (KM12): > 100 µM (inactive) | GI50 (LXFL 529): > 100 µM (inactive) | GI50 (M19-MEL): > 100 µM (inactive) | GI50 (MOLT-4): > 100 µM (inactive) | GI50 (Malme-3M): > 100 µM (inactive) | GI50 (NCI-H226): > 100 µM (inactive) | GI50 (NCI-H23): > 100 µM (inactive) | GI50 (NCI-H460): > 100 µM (inactive) | GI50 (NCI-H522): > 100 µM (inactive) | GI50 (OVCAR-3): > 100 µM (inactive) | GI50 (OVCAR-8): > 100 µM (inactive) | GI50 (RPMI-8226): > 100 µM (inactive) | GI50 (RXF 393): > 100 µM (inactive) | GI50 (SF-268): > 100 µM (inactive) | GI50 (SF-295): > 100 µM (inactive) | GI50 (SF-539): > 100 µM (inactive) | GI50 (SK-MEL-28): > 100 µM (inactive) | GI50 (SK-MEL-2): > 100 µM (inactive) | GI50 (SK-MEL-5): > 100 µM (inactive) | GI50 (SK-OV-3): > 100 µM (inactive) | GI50 (SN12C): > 100 µM (inactive) | GI50 (SNB-19): > 100 µM (inactive) | GI50 (SNB-75): > 100 µM (inactive) | GI50 (SNB-78): > 100 µM (inactive) | GI50 (SR): > 100 µM (inactive) | GI50 (SW-620): > 100 µM (inactive) | GI50 (TK-10): > 100 µM (inactive) | GI50 (U-251): > 100 µM (inactive) | GI50 (UACC-257): > 100 µM (inactive) | GI50 (UACC-62): > 100 µM (inactive) | GI50 (UO-31): > 100 µM (inactive)

CC[N+]1(C)CCC(O)(c2ccccc2)C(C(=O)c2ccccc2)C1 (stereo not given)
GI50 (786-0): 5.89 µM (inactive) | GI50 (A498): 16.1 µM (inactive) | GI50 (A549): 16 µM (inactive) | GI50 (ACHN): 10.1 µM (inactive) | GI50 (BT-549): 9.02 µM (inactive) | GI50 (CAKI-1): 4.14 µM (inactive) | GI50 (CCRF-CEM): 2.04 µM (inactive) | GI50 (COLO 205): 9.38 µM (inactive) | GI50 (DLD-1): 7.93 µM (inactive) | GI50 (DMS-114): 20.2 µM (inactive) | GI50 (DMS-273): 21.4 µM (inactive) | GI50 (DU-145): 22.1 µM (inactive) | GI50 (EKVX): 21.1 µM (inactive) | GI50 (HCC 2998): 34 µM (inactive) | GI50 (HCT-116): 13.6 µM (inactive) | GI50 (HCT-15): 9.73 µM | GI50 (HL-60): 4.27 µM (inactive) | GI50 (HOP-18): 13.7 µM (inactive) | GI50 (HOP-62): 22 µM (inactive) | GI50 (HOP-92): 8.3 µM (inactive) | GI50 (HT-29): 12.5 µM (inactive) | GI50 (Hs-578T): 24 µM (inactive) | GI50 (IGROV-1): 19.8 µM (inactive) | GI50 (K562): 2.11 µM (inactive) | GI50 (KM-20L2): 19.5 µM (inactive) | GI50 (KM12): 19.2 µM (inactive) | GI50 (LOX IMVI): 15.4 µM (inactive) | GI50 (LXFL 529): 10 µM (inactive) | GI50 (M14): 9.71 µM (inactive) | GI50 (M19-MEL): 18.4 µM (inactive) | GI50 (MCF7): 2.73 µM (inactive) | GI50 (MDA-MB-231): 17.2 µM (inactive) | GI50 (MDA-MB-435): 17.9 µM (inactive) | GI50 (MOLT-4): 3.04 µM (inactive) | GI50 (Malme-3M): 16.7 µM (inactive) | GI50 (NCI-H226): 18.6 µM (inactive) | GI50 (NCI-H23): 20.8 µM (inactive) | GI50 (NCI-H460): 21.7 µM (inactive) | GI50 (NCI-H522): 1.75 µM (inactive) | GI50 (NCI/ADR-RES): 29.6 µM (inactive) | GI50 (OVCAR-3): 19.3 µM (inactive) | GI50 (OVCAR-4): 11.8 µM (inactive) | GI50 (OVCAR-5): 17.9 µM (inactive) | GI50 (OVCAR-8): 25.8 µM (inactive) | GI50 (PC-3): 17.9 µM (inactive) | GI50 (RPMI-8226): 2 µM (inactive) | GI50 (RXF 393): 12.4 µM (inactive) | GI50 (SF-268): 23.6 µM (inactive) | GI50 (SF-295): 19 µM (inactive) | GI50 (SF-539): 16.7 µM (inactive) | GI50 (SK-MEL-28): 15.2 µM (inactive) | GI50 (SK-MEL-2): 18.7 µM (inactive) | GI50 (SK-MEL-5): 18.6 µM (inactive) | GI50 (SK-OV-3): 17.3 µM (inactive) | GI50 (SN12C): 11.6 µM (inactive) | GI50 (SNB-19): 15.5 µM (inactive) | GI50 (SNB-75): 12.6 µM (inactive) | GI50 (SR): 5.43 µM (inactive) | GI50 (SW-620): 2.12 µM (inactive) | GI50 (T47D): 16.9 µM (inactive) | GI50 (TK-10): 15.7 µM (inactive) | GI50 (U-251): 20.6 µM (inactive) | GI50 (UACC-257): 17.5 µM (inactive) | GI50 (UACC-62): 19 µM (inactive) | GI50 (UO-31): 18.7 µM (inactive)

CCCCCC(/C=C/[C@@H]1[C@H]2CC(=O)O[C@H]2C[C@H]1N1CCOCC1)OC1CCCO1 (stereo not given in full)
GI50 (786-0): > 100 µM (inactive) | GI50 (A498): > 100 µM (inactive) | GI50 (A549): > 100 µM (inactive) | GI50 (ACHN): > 100 µM (inactive) | GI50 (CAKI-1): > 100 µM (inactive) | GI50 (CCRF-CEM): > 100 µM (inactive) | GI50 (COLO 205): > 100 µM (inactive) | GI50 (DLD-1): > 100 µM (inactive) | GI50 (DMS-114): > 100 µM (inactive) | GI50 (DMS-273): > 100 µM (inactive) | GI50 (EKVX): > 100 µM (inactive) | GI50 (HCC 2998): > 100 µM (inactive) | GI50 (HCT-116): > 100 µM (inactive) | GI50 (HCT-15): > 100 µM | GI50 (HL-60): > 100 µM (inactive) | GI50 (HOP-18): > 100 µM (inactive) | GI50 (HOP-62): > 100 µM (inactive) | GI50 (HOP-92): > 100 µM (inactive) | GI50 (HT-29): > 100 µM (inactive) | GI50 (IGROV-1): > 100 µM (inactive) | GI50 (K562): > 100 µM (inactive) | GI50 (KM-20L2): > 100 µM (inactive) | GI50 (KM12): > 100 µM (inactive) | GI50 (LOX IMVI): > 100 µM (inactive) | GI50 (LXFL 529): > 100 µM (inactive) | GI50 (M14): > 100 µM (inactive) | GI50 (M19-MEL): > 100 µM (inactive) | GI50 (MOLT-4): > 100 µM (inactive) | GI50 (Malme-3M): > 100 µM (inactive) | GI50 (NCI-H226): > 100 µM (inactive) | GI50 (NCI-H23): > 100 µM (inactive) | GI50 (NCI-H460): > 100 µM (inactive) | GI50 (NCI-H522): > 100 µM (inactive) | GI50 (OVCAR-3): > 100 µM (inactive) | GI50 (OVCAR-4): > 100 µM (inactive) | GI50 (OVCAR-5): > 100 µM (inactive) | GI50 (OVCAR-8): > 100 µM (inactive) | GI50 (RPMI-8226): > 100 µM (inactive) | GI50 (RXF 393): > 100 µM (inactive) | GI50 (SF-268): > 100 µM (inactive) | GI50 (SF-295): > 100 µM (inactive) | GI50 (SF-539): > 100 µM (inactive) | GI50 (SK-MEL-28): > 100 µM (inactive) | GI50 (SK-MEL-2): > 100 µM (inactive) | GI50 (SK-MEL-5): > 100 µM (inactive) | GI50 (SK-OV-3): > 100 µM (inactive) | GI50 (SNB-19): > 100 µM (inactive) | GI50 (SNB-75): > 100 µM (inactive) | GI50 (SNB-78): > 100 µM (inactive) | GI50 (SW-620): > 100 µM (inactive) | GI50 (TK-10): > 100 µM (inactive) | GI50 (U-251): > 100 µM (inactive) | GI50 (UACC-257): > 100 µM (inactive) | GI50 (UACC-62): > 100 µM (inactive) | GI50 (UO-31): > 100 µM (inactive)
